# Read-outs that look alike come from different tables or passages of the source.
# Experiments:
# [1] = system: C. albicans ATCC 64124 (strain B); assay type: cell-based, Candida albicans
# Protocol: The efficiency of the compounds to kill C. albicans ATCC 64124 (strain B) was monitored using a previously published protocol. The cell suspensions were prepared to achieve an inoculum of approximately 1-4×10^5 CFU/mL in RPMI 1640 medium at 35° C. […] After fungal cell addition, at 0, 3, 6, 9, 12, and 24 h, the tubes were vortexed and 100 μL aliquots were removed from each solution, spread onto PDA plates, and incubated at 35° C. Colony counts were determined after 24 h of incubation. The experiments were performed in duplicate (FIG. 2).
# Time-kill assays with ebsulfur (2a) and analogue 3a (FIG. 2) were performed to determine the rate of fungicidal activity of the compounds if the invention.
# J774A.1 cell line = conditions: for cell death: J774, 10 μg/mL, 24 h
# Protocol: The human embryonic kidney cell line HEK-293 (ATCC CRL-1573) and the murine macrophage cell line J774A.1 (ATCC TIB-67) were kindly provided by Dr. Matthew S. Gentry and Dr. David J. Feola (University of Kentucky, Lexington, Ky., USA), respectively. The HEK-293 cell line was grown in Dulbecco's Modified Eagle's Medium (DMEM) (ATCC, Manassas, Va., USA) with 10% fetal bovine serum (FBS) (ATCC, Manassas, Va., USA) and 1% Pen/Strep (ATCC, Manassas, Va., USA). The J774A.1 cell line was grown under the same conditions, except that the medium used was a different type of DMEM (catalog #30-2002, ATCC, Manassas, Va., USA). The HEK-293 cell line was passaged by trypsinization with 0.05%-trypsin-0.53 mM EDTA (ATCC, Manassas, Va., USA). The J774A.1 cell line was passaged mechanically by cell scrapers (ATCC, Manassas, Va., USA). Cell confluency was observed by using a Nikon Eclipse TS100 microscope (Minato, Tokyo, Japan).
# Mammalian cytotoxicity assays were performed as previously described with minor modifications (FIG. 4). The HEK-293 and J774A.1 cell lines were grown in various Dulbecco's Modified Eagle's Medium (DMEM) with 10% fetal bovine serum (FBS) and 1% Pen/Strep at 37° C. with 5% CO2. The confluent cells were either trypsinized with 0.05%-trypsin-0.53 mM EDTA (HEK-293 cell line) or mechanically removed by cell scrapers (J774A.1 cell line). […] The cells were incubated with tested compounds for another 24 h at 37° C. with 5% CO2. Cell survival was assessed by resazurin assay. Each well was treated with resazurin (10 μL of a 25 mg/L solution) for 6 h. […] Dead cells remain purple/blue. The percentage of survival rate was calculated by using the following formula: [(test value)/(control value)×100].
# [2] = system: Aspergillus terreus ATCC MYA-3633 (strain M); assay: Antifungal MIC determination, filamentous fungi spores; assay type: cell-based; conditions: strain M; all compounds; spores
# How it was run: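 A modified CLSI M27-A3 protocol is used, with final compound levels from 12.5 to 0.02 μg/mL in two-fold steps. Cells are incubated at 5×10^3 CFU/mL in buffered RPMI 1640 at 35° C for 48 h.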
Structure (SMILES),fungicidal or fungistatic effect [1],reduction of fungal cells [1] [log],fungicidal or fungistatic effect ([1]; 1× MIC),fungicidal or fungistatic effect ([1]; 2× MIC),cell death (J774A.1 cell line),MIC-0 [2] [µg/mL],"concentration without any toxicity (J774A.1 cell line; J774, 24 h)"
CCCCCn1sc2ccccc2c1=O [Compound 3a],fungistatic,4,fungistatic,fungistatic,approximately 50%,≤0.02,–
CCCCCCn1sc2ccccc2c1=O [Compound 3b],–,–,–,–,approximately 50%,≤0.02,–
CC(C)(C)n1sc2ccccc2c1=O [Compound 3g],–,–,–,–,–,0.10,up to 5 μg/mL

# From patent US10544112B2, “Identification of ebsulfur analogues with broad-spectrum antifungal activity” (priority 2017, dated 2020)
